Results reported in ChEMBL document CHEMBL3885881, “DrugMatrix”.

Assays:
Rattus norvegicus [1] = species on record: Rattus norvegicus; format: toxicity, organism-based, Sprague-Dawley; settings: in vivo, po, 75 mg/kg, 24 h, route oral GAVAGE, dose level High, time 1 day, vehicle .5 % CMC
Description: DrugMatrix - Regimen: Single

Rattus norvegicus [2] = species on record: Rattus norvegicus; assay: DrugMatrix - Regimen: Daily Repeat; format: toxicity, organism-based, Sprague-Dawley; design: regimen Daily Repeat, gender Male, age 6-8 weeks; settings: in vivo, po, 75 mg/kg, 72 h, route oral GAVAGE, dose level High, time 3 day, vehicle .5 % CMC

`COc1ccc(C2CNC(=O)C2)cc1OC1CCCC1` (stereo not drawn) [ROLIPRAM] was tested, and the “ABSOLUTE EOSINOPHIL” value (Rattus norvegicus [1]; tissue Blood) was 109.33 CELLS/uL, the “ABSOLUTE LYMPHOCYTE” value (Rattus norvegicus [1]; tissue Blood) was 7018.33 CELLS/uL and the “ABSOLUTE MONOCYTE” value (Rattus norvegicus [1]; tissue Blood) was 257 CELLS/uL. The “ABSOLUTE SEGMENTED NEUTROPHIL” value (Rattus norvegicus [1]; tissue Blood) was 1082 CELLS/uL, the BASOPHIL (Rattus norvegicus [1]; tissue Blood) was 0% and the EOSINOPHIL (Rattus norvegicus [1]; tissue Blood) was 1.33%. For the same compound, the “ERYTHROCYTE COUNT” value (Rattus norvegicus [1]; tissue Blood) was 5.95 x10E6/uL, the HEMATOCRIT (Rattus norvegicus [1]; tissue Blood) was 37% and the HEMOGLOBIN (Rattus norvegicus [1]; tissue Blood) was 13.5 G/DL. The “LEUKOCYTE COUNT” value (Rattus norvegicus [1]; tissue Blood) was 8.47 x10E3/uL, the LYMPHOCYTE (Rattus norvegicus [1]; tissue Blood) was 83.33% and the “MEAN CORPUSCULAR HEMOGLOBIN” value (Rattus norvegicus [1]; tissue Blood) was 22.7 pg. For the same compound, the “MEAN CORPUSCULAR HEMOGLOBIN CONCENTRATION” value (Rattus norvegicus [1]; tissue Blood) was 36.47 G/DL, the “MEAN CORPUSCULAR VOLUME” value (Rattus norvegicus [1]; tissue Blood) was 62.17 fL and the MONOCYTE (Rattus norvegicus [1]; tissue Blood) was 3%. For the same compound, the NEUTROPHIL (Rattus norvegicus [1]; tissue Blood) was 12.33%, the “NUCLEATED RED BLOOD CELLS” value (Rattus norvegicus [1]; tissue Blood) was 0 /100WBC and the “PLATELET COUNT” value (Rattus norvegicus [1]; tissue Blood) was 1249.33 x10E3/uL. The “ALANINE AMINOTRANSFERASE” value (Rattus norvegicus [1]; tissue Plasma) was 29 u/L, the ALBUMIN (Rattus norvegicus [1]; tissue Plasma) was 4.47 G/DL and the “ALKALINE PHOSPHATASE” value (Rattus norvegicus [1]; tissue Plasma) was 403.67 u/L. For the same compound, the “ASPARTATE AMINOTRANSFERASE” value (Rattus norvegicus [1]; tissue Plasma) was 74.67 u/L, the “BLOOD UREA NITROGEN” value (Rattus norvegicus [1]; tissue Plasma) was 13.33 mg/dL and the “CARBON DIOXIDE” value (Rattus norvegicus [1]; tissue Plasma) was 34.67 mmol/L. For the same compound, the CHLORIDE (Rattus norvegicus [1]; tissue Plasma) was 103 MEQ/L, the CHOLESTEROL (Rattus norvegicus [1]; tissue Plasma) was 69.67 mg/dL and the CREATININE (Rattus norvegicus [1]; tissue Plasma) was 0.18 mg/dL. The GLUCOSE (Rattus norvegicus [1]; tissue Plasma) was 144.33 mg/dL, the “LACTATE DEHYDROGENASE” value (Rattus norvegicus [1]; tissue Plasma) was 95.67 u/L and the LIPASE (Rattus norvegicus [1]; tissue Plasma) was 8.67 u/L. It also gave a PHOSPHORUS (Rattus norvegicus [1]; tissue Plasma) of 11.1 mg/dL, a POTASSIUM (Rattus norvegicus [1]; tissue Plasma) of 5.46 MEQ/L and an SODIUM (Rattus norvegicus [1]; tissue Plasma) of 151.33 MEQ/L. The “TOTAL BILIRUBIN” value (Rattus norvegicus [1]; tissue Plasma) was 0.1 mg/dL, the “TOTAL PROTEIN” value (Rattus norvegicus [1]; tissue Plasma) was 6.4 G/DL and the “URIC ACID” value (Rattus norvegicus [1]; tissue Plasma) was 1.17 mg/dL. For the same compound, the “ABSOLUTE BASOPHIL” value (Rattus norvegicus [2]; tissue Blood) was 0 CELLS/uL, the “ABSOLUTE EOSINOPHIL” value (Rattus norvegicus [2]; tissue Blood) was 174 CELLS/uL and the “ABSOLUTE LYMPHOCYTE” value (Rattus norvegicus [2]; tissue Blood) was 10500 CELLS/uL. For the same compound, the “ABSOLUTE MONOCYTE” value (Rattus norvegicus [2]; tissue Blood) was 432 CELLS/uL, the “ABSOLUTE SEGMENTED NEUTROPHIL” value (Rattus norvegicus [2]; tissue Blood) was 3427.33 CELLS/uL and the BASOPHIL (Rattus norvegicus [2]; tissue Blood) was 0%. For the same compound, the EOSINOPHIL (Rattus norvegicus [2]; tissue Blood) was 1%, the “ERYTHROCYTE COUNT” value (Rattus norvegicus [2]; tissue Blood) was 6.02 x10E6/uL and the HEMATOCRIT (Rattus norvegicus [2]; tissue Blood) was 37.7%. For the same compound, the HEMOGLOBIN (Rattus norvegicus [2]; tissue Blood) was 13.93 G/DL, the “LEUKOCYTE COUNT” value (Rattus norvegicus [2]; tissue Blood) was 14.53 x10E3/uL and the LYMPHOCYTE (Rattus norvegicus [2]; tissue Blood) was 73.33%. The “MEAN CORPUSCULAR HEMOGLOBIN” value (Rattus norvegicus [2]; tissue Blood) was 23.2 pg, the “MEAN CORPUSCULAR HEMOGLOBIN CONCENTRATION” value (Rattus norvegicus [2]; tissue Blood) was 36.97 G/DL and the “MEAN CORPUSCULAR VOLUME” value (Rattus norvegicus [2]; tissue Blood) was 62.73 fL. The MONOCYTE (Rattus norvegicus [2]; tissue Blood) was 2.67%, the NEUTROPHIL (Rattus norvegicus [2]; tissue Blood) was 23% and the “NUCLEATED RED BLOOD CELLS” value (Rattus norvegicus [2]; tissue Blood) was 0 /100WBC. The “PLATELET COUNT” value (Rattus norvegicus [2]; tissue Blood) was 1088.33 x10E3/uL, the “ALANINE AMINOTRANSFERASE” value (Rattus norvegicus [2]; tissue Plasma) was 60.33 u/L and the ALBUMIN (Rattus norvegicus [2]; tissue Plasma) was 4.3 G/DL. For the same compound, the “ALKALINE PHOSPHATASE” value (Rattus norvegicus [2]; tissue Plasma) was 331.67 u/L, the “ASPARTATE AMINOTRANSFERASE” value (Rattus norvegicus [2]; tissue Plasma) was 73.33 u/L and the “BLOOD UREA NITROGEN” value (Rattus norvegicus [2]; tissue Plasma) was 14.67 mg/dL. For the same compound, the “CARBON DIOXIDE” value (Rattus norvegicus [2]; tissue Plasma) was 28 mmol/L, the CHLORIDE (Rattus norvegicus [2]; tissue Plasma) was 104 MEQ/L and the CHOLESTEROL (Rattus norvegicus [2]; tissue Plasma) was 63.33 mg/dL. For the same compound, the CREATININE (Rattus norvegicus [2]; tissue Plasma) was 0.17 mg/dL, the GLUCOSE (Rattus norvegicus [2]; tissue Plasma) was 170.67 mg/dL and the “LACTATE DEHYDROGENASE” value (Rattus norvegicus [2]; tissue Plasma) was 116 u/L. For the same compound, the LIPASE (Rattus norvegicus [2]; tissue Plasma) was 10 u/L, the PHOSPHORUS (Rattus norvegicus [2]; tissue Plasma) was 11 mg/dL and the POTASSIUM (Rattus norvegicus [2]; tissue Plasma) was 6.1 MEQ/L. The SODIUM (Rattus norvegicus [2]; tissue Plasma) was 147.83 MEQ/L, the “TOTAL BILIRUBIN” value (Rattus norvegicus [2]; tissue Plasma) was 0.1 mg/dL and the “TOTAL PROTEIN” value (Rattus norvegicus [2]; tissue Plasma) was 6.23 G/DL. For the same compound, the “URIC ACID” value (Rattus norvegicus [2]; tissue Plasma) was 1.73 mg/dL.
